Molecules are shown by their SMILES. Where a name gives a salt, the structure may show the parent alone.

Usually melting point stands for the temperature, or range, at which the solid turns liquid.

On to `CC(C)(Cc1ccc(OCCCC(=O)O)cc1)NCC(O)c1cc(O)cc2c1OCC(=O)N2` (centres unmarked) (as salt: salt) [Example 16, Acid addition salt of 4-(4-{2-[2-hydroxy-2-(6-hydroxy-3-oxo-3,4-dihydro-2H-benzo[1,4]oxazin-8-yl)-ethylamino]-2-methyl-propyl}-phenoxy)-butyric acid], for which the melting point was 201 to 204 °C.
With `CC(C)(Cc1ccc(F)cc1F)NCC(O)c1cc(O)cc2c1OCC(=O)N2` (centres unmarked) (as salt: hydrochloride), the melting point is 279 to 280 °C.
Consider `Cc1cc(F)ccc1CC(C)(C)NCC(O)c1cc(O)cc2c1OCC(=O)N2` (centres unmarked) (as salt: hydrochloride), for which the melting point is 278 to 280 °C.
The figure for `Cc1cc(C)cc(CC(C)(C)NCC(O)c2cc(O)cc3c2OCC(=O)N3)c1` (centres unmarked) (as salt: hydrochloride) is 235 to 238 °C.
As to `Cc1cc(CC(C)(C)NCC(O)c2cc(O)cc3c2OCC(=O)N3)ccc1F` (centres unmarked) (as salt: hydrochloride), the melting point was in the range of 278 to 280 °C.

The values above are taken from patent US20120035169A1, “AEROSOL FORMULATION FOR THE INHALATION OF BETA-AGONISTS” (BOEHRINGER INGELHEIM INTERNATIONAL GMBH, priority 2004, published 2012).
